# Measured values taken from patent publication US8106048B2, “Heterocyclic NF-κB inhibitors” (4SC AG, priority 2004, dated 2012).
# What was measured:
# NF-κB [1] = settings: cited from earlier work
# TNF-α = settings: mouse; cited from earlier work
# p65 subunit of NF-κB = settings: cited from earlier work
# IκB-α = settings: cited from earlier work
# NF-κB [2] = settings: cited from earlier work; remark: listed apart in the source
# 20S and 26S proteasome = target: T1, 20S and 26S proteasome (Homo sapiens, UniProt P28072+P28074+Q99436); settings: cited from earlier work
# T1 sequence (P28074 60-263): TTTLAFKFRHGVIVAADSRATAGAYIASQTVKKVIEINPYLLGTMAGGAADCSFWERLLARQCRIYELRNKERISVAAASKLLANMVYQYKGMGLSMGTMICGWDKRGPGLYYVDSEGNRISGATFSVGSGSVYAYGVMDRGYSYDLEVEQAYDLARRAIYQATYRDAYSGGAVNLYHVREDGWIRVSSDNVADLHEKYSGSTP
# T1 sequence (P28072 1-239): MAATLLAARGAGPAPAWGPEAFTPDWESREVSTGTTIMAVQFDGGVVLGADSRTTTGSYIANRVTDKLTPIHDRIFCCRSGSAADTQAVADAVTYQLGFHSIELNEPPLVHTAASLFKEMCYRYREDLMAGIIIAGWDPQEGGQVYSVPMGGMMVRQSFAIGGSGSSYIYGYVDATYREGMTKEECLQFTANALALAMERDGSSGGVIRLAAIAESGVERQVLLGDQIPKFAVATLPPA
# T1 sequence (Q99436 44-277): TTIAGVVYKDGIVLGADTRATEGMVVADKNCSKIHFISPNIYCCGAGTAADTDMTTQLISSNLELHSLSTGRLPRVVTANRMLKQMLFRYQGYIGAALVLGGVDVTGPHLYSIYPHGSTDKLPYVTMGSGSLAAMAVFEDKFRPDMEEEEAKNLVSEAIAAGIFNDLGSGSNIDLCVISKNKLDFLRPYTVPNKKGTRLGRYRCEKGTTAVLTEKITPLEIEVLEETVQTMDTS
# [3] = tested on: A549-NF-κB-SEAP reporter cells; experiment: Inhibition of NF-κB-induced inflammation: […] NINA Instant Assay, TNF-α stimulated SEAP reporter; format: cell-based; settings: % inhibition classes
# How it was run: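 A549 cells carrying an NF-κB-driven SEAP reporter were pretreated with compound (0.01–100 μM) for 4.5 h, then stimulated with 2 ng/ml TNF-α for 22 h. After inactivation of endogenous phosphatases, SEAP activity was read by CSPD chemiluminescence (40 min). EC50 values were fitted from quadruplicate data points.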
smiles,measurement,setting,value
S=C(S)N1CCCC1 [pyrrolidine dithiocarbamate],inhibition of NF-κB transcriptional activation,NF-κB [1],inhibitors of NF-κB transcritional activation
same,lipopolysaccharide-induced TNF-α production,TNF-α,blocked lipopolysacharide-induced TNF-α production in mouse in a dose dependent manner
C=C1C(=O)O[C@@H]2C[C@H](C)[C@H]3C=CC(=O)[C@@]3(C)[C@@H](O)[C@H]12 [Helenalin],translocation of NF-κB to the nucleus,p65 subunit of NF-κB,did not inhibit
same,IκB degradation,IκB-α,did not inhibit
same,NF-κB activation / activity,NF-κB [2],inhibit NF-κB activity by selectively alkylating the cysteine residue of the p65 subunit of NF-κB
CC(=O)N[C@@H](CSC(=O)[C@]1([C@@H](O)C(C)C)NC(=O)[C@H](C)[C@@H]1O)C(=O)O [Lactacystin],inhibition of 20S and 26S proteasome,20S and 26S proteasome,"inhibits both, 20S and 26S proteasome"
same,inhibitory activity on proteasome peptidase activities,"20S and 26S proteasome; trypsin-like, chymotrypsin-like, peptidylglutamylpeptide hydrolyzing","inhibitory activity on trypsin-like, chymotrypsin-like and peptidylglutamylpeptide hydrolyzing activities"
COc1cc(CNC(=O)CCCC/C=C/C(C)C)ccc1O [capsaicin],translocation of NF-κB to the nucleus,p65 subunit of NF-κB,blocked
same,IκB degradation,IκB-α,blocked degradation of IκB-α
same,NF-κB activation / activity,NF-κB [2],blocked TNF-α and phorbol mediated NF-κB activation
CCN(CC)CCNC(=O)c1ccc(N)c(Cl)c1 [3-chloroprocainamide],inhibition of NF-κB transcriptional activation,NF-κB [1],inhibitors of NF-κB transcritional activation
same,lipopolysaccharide-induced TNF-α production,TNF-α,blocked lipopolysacharide-induced TNF-α production in mouse in a dose dependent manner
NC(=O)c1cccnc1 [nicotinamide],lipopolysaccharide-induced TNF-α production,TNF-α,blocked lipopolysacharide-induced TNF-α production in mouse in a dose dependent manner
O=C(Nc1nc(C(=O)N2CCN(c3ccc(Cl)c(Cl)c3)CC2)cs1)c1ccccc1OC(F)(F)F [compound 41],Biological activity (inhibition in the NF-κB inflammation assay),[3],+++ (“+++” stands for 90-100% inhibition)
O=C(c1ccc2nccnc2c1)N1CCC(c2nc(C(=O)N3CCN(c4cccc(C(F)(F)F)c4)CC3)cs2)CC1 [compound 211],Biological activity (inhibition in the NF-κB inflammation assay),[3],+ (“+” stands for 50-80% inhibition)
Cc1cc(NC(=O)N2CCC(c3nc(C(=O)N4CCN(c5cccc(C(F)(F)F)c5)CC4)cs3)CC2)c(C(F)(F)F)o1 [compound 76],Biological activity (inhibition in the NF-κB inflammation assay),[3],++ (“++” means 80-90%)
